# Article PMC8112869, “Therapeutic inhibition of keratinocyte TRPV3 sensory channel by local anesthetic dyclonine” (eLife, 2021)
# Biological target: T1, mouse TRPV3 (Mus musculus, UniProt Q8K424)
# T1 sequence (Q8K424 1-791): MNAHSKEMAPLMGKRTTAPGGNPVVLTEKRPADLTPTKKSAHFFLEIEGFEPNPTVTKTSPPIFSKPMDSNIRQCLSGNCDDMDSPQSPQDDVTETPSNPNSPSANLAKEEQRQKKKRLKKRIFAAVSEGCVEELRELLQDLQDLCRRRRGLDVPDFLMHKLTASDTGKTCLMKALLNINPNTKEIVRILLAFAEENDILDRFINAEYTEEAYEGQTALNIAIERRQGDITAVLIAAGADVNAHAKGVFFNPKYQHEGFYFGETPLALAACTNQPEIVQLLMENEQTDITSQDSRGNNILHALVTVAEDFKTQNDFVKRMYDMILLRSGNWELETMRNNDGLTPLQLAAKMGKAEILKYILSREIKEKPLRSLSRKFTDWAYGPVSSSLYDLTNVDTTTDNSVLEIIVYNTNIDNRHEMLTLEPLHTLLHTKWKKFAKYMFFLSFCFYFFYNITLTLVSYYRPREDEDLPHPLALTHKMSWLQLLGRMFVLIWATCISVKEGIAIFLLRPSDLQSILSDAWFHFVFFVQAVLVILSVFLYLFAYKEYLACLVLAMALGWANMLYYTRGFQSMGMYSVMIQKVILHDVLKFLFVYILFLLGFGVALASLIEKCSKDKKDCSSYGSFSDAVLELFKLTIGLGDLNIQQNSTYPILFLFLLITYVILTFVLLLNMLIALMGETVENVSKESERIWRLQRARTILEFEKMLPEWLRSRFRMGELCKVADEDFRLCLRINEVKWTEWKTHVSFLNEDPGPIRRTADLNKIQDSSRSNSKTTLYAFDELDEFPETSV
# Assay: Voltage-step whole-cell recording of TRPV3 currents (40 μM 2-APB) in HEK 293T cells
# Format: cell-based
# Design: expressed in transfected cells; host or cells: HEK 293T
# Conditions: steps –160 to +180 mV, dyclonine 10, 30 μM, RR 10 μM
# Description: Conventional whole-cell and excised patch-clamp recording methods were used. For the recombinant expressing system, green fluorescent EGFP was used as a surface marker for gene expression. Recording pipettes were pulled from borosilicate glass capillaries (World Precision Instruments) and fire-polished to a resistance between 2 and 4 MΩ when filled with internal solution containing (in mM) 140 CsCl, 2.0 MgCl2, 5 EGTA, and 10 HEPES, pH 7.4 (adjusted with CsOH). Bath solution contained (in mM): 140 NaCl, 5 KCl, 3 EGTA, and 10 HEPES, pH 7.4 adjusted with NaOH. For recordings in keratinocytes, the bath saline consisted of (in mM) 140 NaCl, 5 KCl, 2 MgCl2, 2 CaCl2, 10 glucoses, and 10 HEPES, pH 7.4 adjusted with NaOH, and the pipette solution contained (in mM) 140 CsCl, 5 EGTA, and 10 HEPES, pH 7.3 adjusted with CsOH. […] For a subset of recordings, currents were amplified using an Axopatch 200B amplifier (Molecular Devices, Sunnyvale, CA) and recorded through a BNC-2090/MIO acquisition system (National Instruments, Austin, TX) using QStudio developed by Dr. Feng Qin at State University of New York at Buffalo. […] As determined by the conductance tests, the solution around a patch under study was fully controlled by the application of a flow rate of 100 μl/min or greater. […]
smiles,measurement,value
CCCCOc1ccc(C(=O)CCN2CCCCC2)cc1 [dyclonine],effect on TRPV3-mediated inward and outward currents (voltage dependence),the inhibition occurred independently of the membrane potential
